Assay results: US20250170224A1, “METHODS AND COMPOSITIONS FOR TREATING MICROGLIAL DYSFUNCTION AND IMPROVING METABOLIC DYSFUNCTION” (Ultimate Medicine AG, priority 2021, published 2025)

Test: In vivo intestinal permeability to CML (CML translocated into the circulation after oral gavage, LC-MS)
Set-up: species or system mouse
Settings: young-adult and aged mice, SPF or GF, 4 hours post gavage
Protocol: Specific pathogen-free (SPF) and germ-free (GF) housed C57BL/6 mice were analyzed at 6-10 weeks of age (young-adult) and 96-104 weeks of age (aged). Mice of the aged group in the nontargeted metabolomics analysis were 17-18 months old. Except for nontargeted metabolomics and microbiota profiling, where only male mice were used, all groups included mice from both sexes. Mice were housed under a 12-hour light/12-hour dark cycle and temperatures of 18-23° C. with 40-60% humidity, with food and water given ad libitum. To avoid cage effects, mice from at least three different cages per experimental group were analyzed. […] Blood was collected retro-orbitally after 4 hours and fluorescence intensity was measured on fluorescence plates using an excitation wavelength of 493 nm and an emission wavelength of 518 nm. […] CML translocated into the circulation was measured by liquid chromatography-mass spectrometry (LC-MS). […]
Samples were extracted with precooled (−80° C.) extraction solution (80:20 methanol LC-MS grade: Milli-Q H2O). Targeted metabolite quantification by LC-MS was carried out using an Agilent 1290 Infinity II UHPLC system in line with an Agilent 6495 QQQ-MS operating in multiple reaction monitoring (MRM) mode. […] Peak areas were identified based on standards for each metabolite and calculated using MassHunter v.B.08.02 (Agilent). […]

## N[C@@H](CCCCNCC(=O)O)C(=O)O [CML, N^6-carboxymethyllysine]
  translocation of CML into the circulation after oral gavage: highest in aged SPF mice
